Measurements from patent US11385234B2, “Methods and systems for detecting an analyte or classifying a sample” (Commonwealth Scientific and Industrial Research Organisation, priority 2012, dated 2022).
Several values for one entry are separate records, joined by “and”; a condition that tells them apart may be missing. Identical values can stand only once.

What was measured:
GFP^2-RG-RLuc biosensor = experiment: Hybrid BRET (BRET^H) thrombin cleavage assay, microplate; format: biochemical; conditions: 54 nM thrombin, 90 minutes, 30° C.; 1 μM fusion protein, 5 μM native coelenterazine
Text: A combination of BRET^1 and BRET^2 techniques was used and referred to herein as hybrid BRET. Specifically, RLuc with native coelenterazine substrate was used as the bioluminescent donor and GFP^2 as the acceptor molecule. The donor and acceptor were linked by a peptide sequence containing the thrombin cleavage site ([…]↓ GSLQ (RG)) (GFP^2-RG-RLuc) and expressed in E. coli.
GFP^2-RG-RLuc biosensor was expressed and purified as reported previously (Dacres et al. 2009a). The purified fusion protein was in thrombin cleavage buffer (10 mM Tris (pH 8.0), 100 mM NaCl, 1 mM EDTA). The final concentration of the native coelenterazine substrate (Biosynth) used for microfluidic based assays was 58.6 μM and 5 μM for plate-reader based assays. 1 unit (U)/μl thrombin protease (Amersham Biosciences) solution was prepared in 1× phosphate buffer saline (PBS).
Simultaneous dual emission hybrid BRET measurements were carried out both in a microplate using a SpectraMax M2 spectrofluorimeter (Molecular Devices) and in the microfluidics apparatus described below. Spectral scans of BRET constructs were recorded using the luminescence scan mode between 400 and 650 nm on addition of 5 μM native coelenterazine substrate to 1 μM of biosensor. […]
Using the microplate spectrometer, hybrid BRET ratios were calculated as the ratio of bioluminescence emissions measured at 500 nm and 470 nm. […]

[1] = test system: BRET^2 based thrombin biosensor; conditions: cited from earlier work
[2] = test system: GFP^2-RG-RLuc thrombin sensor; experiment: BRET^2 thrombin sensor in microfluidic chip with optical detection chamber; format: biochemical
Text: In a BRET^2 system, Renilla luciferase (RLuc) with coelenterazine 400a (CLZ400A) substrate was used as the photon donor and GFP^2 was used as the acceptor molecule. As the luminescence of BRET^2 is 100-fold smaller than that of the BRET^1.5, the BRET^2 reaction requires efficient mixing at optimal temperature, detection chamber size, flow rates and concentrations to produce highest bioluminescence signal. Thus, this system is used to evaluate different mixing mechanisms (FIG. 8), reaction chamber designs and reaction conditions.
PDMS chips with a Y-shaped microchannel with three mixing elements (FIG. 8), with a rectangular cross section in the microchannels (200 μm in width and 30 μm in height) was used to monitor BRET^2 assays. The detection chambers with different diameter and height were located at the end of the microchannels. The emitting bioluminescence was collected by a multimode optical fiber located underneath the detection chamber. The emissions will be split by dichroic block and going through two band pass filters corresponding to emission band of the donor (430 nm-455 nm) and the emission band of the acceptor (515 nm-555 nm) before going into two corresponding photomultiplier tubes (Hamamatsu H7421). […]
Approximately 75% decrease in BRET^2 signal was measured for on-chip reaction at input flow rate of 50 μL/hr (FIG. 12).

thrombin
BRET^H ratio following thrombin cleavage (GFP^2-RG-RLuc biosensor): 0.75±0.04 and 0.79±0.05 | decrease in BRET^H ratio following thrombin cleavage (GFP^2-RG-RLuc biosensor): approximately 32% | kcat of thrombin [1]: ≈ 85 s^−1 | change in BRET^2 ratio (GFP/RLuc) after digestion of the sensor ([2]; 270 pM thrombin): approximately tenfold | decrease in BRET^2 signal, on-chip reaction ([2]; 540 nM thrombin, 1 μM sensor, 12.5 μM substrate, two-inlet device, 50 μL/hr): Approximately 75%
